In ChEMBL document CHEMBL3885861, “Open TG-GATES”:

Species on record: Rattus norvegicus
Assay: Open TG-GATES - Regimen: Single
Type: toxicity, organism-based, Sprague-Dawley
Parameters: regimen Single, gender Male, age 6 weeks
Details: in vivo, po, route gavage; for APTT / Bas / Eos / Fbg / Hb / Ht / Lym / MCHC / MCV / Mono / Neu / PT / Plat / RBC / Ret / WBC: tissue Blood; for KIDNEY_L / KIDNEY_R / KIDNEY_TOTAL: tissue Kidney; for LIVER: tissue Liver
[1] = 100 mg/kg, 3 h, tissue Plasma, dose level Low
[2] = 100 mg/kg, 6 h, tissue Plasma, dose level Low
[3] = 100 mg/kg, 9 h, tissue Plasma, dose level Low
[4] = 100 mg/kg, 24 h, dose level Low
[5] = 100 mg/kg, 24 h, tissue Plasma, dose level Low
[6] = 300 mg/kg, 3 h, dose level Middle

`CN(C)C(=N)N=C(N)N` [METFORMIN] showed an APTT (100 mg/kg, 3 h, dose level Low) of 16 s, a Bas (100 mg/kg, 3 h, dose level Low) of 0% and an Eos (100 mg/kg, 3 h, dose level Low) of 0.8%. It also gave a Fbg (100 mg/kg, 3 h, dose level Low) of 241.8 mg/dL, a Hb (100 mg/kg, 3 h, dose level Low) of 13.2 g/dL and a Ht (100 mg/kg, 3 h, dose level Low) of 39.9%. The Lym (100 mg/kg, 3 h, dose level Low) was 77.2%, the MCHC (100 mg/kg, 3 h, dose level Low) was 33.1% and the MCV (100 mg/kg, 3 h, dose level Low) was 65.8 fL. It also gave a Mono (100 mg/kg, 3 h, dose level Low) of 3.4%, a Neu (100 mg/kg, 3 h, dose level Low) of 18.2% and a PT (100 mg/kg, 3 h, dose level Low) of 12.3 s. The Plat (100 mg/kg, 3 h, dose level Low) was 118.9 x10_4/uL, the RBC (100 mg/kg, 3 h, dose level Low) was 607.2 x10_4/ul and the Ret (100 mg/kg, 3 h, dose level Low) was 10%. It also gave a WBC (100 mg/kg, 3 h, dose level Low) of 81.3 x10_2/uL, a KIDNEY_L (100 mg/kg, 3 h, dose level Low) of 0.9 g and a KIDNEY_R (100 mg/kg, 3 h, dose level Low) of 0.8 g. The KIDNEY_TOTAL (100 mg/kg, 3 h, dose level Low) was 1.7 g, the LIVER (100 mg/kg, 3 h, dose level Low) was 8.3 g and the ALP [1] was 1250.2 IU/L. For the same compound, the AST [1] was 72.4 IU/L, the BUN [1] was 8.4 mg/dL and the CRE [1] was 0.2 mg/dL. It also gave a Ca [1] of 11.2 mg/dL, a Cl [1] of 105.2 meq/L and a DBIL [1] of 0.008 mg/dL. It also gave a GLC [1] of 168.4 mg/dL, an IP [1] of 8.7 mg/dL and a K [1] of 4.3 meq/L. For the same compound, the LDH [1] was 62.6 IU/L, the Na [1] was 139.4 meq/L and the PL [1] was 135.8 mg/dL. The RALB [1] was 2.5 g/dL, the TBIL [1] was 0.042 mg/dL and the TC [1] was 83.6 mg/dL. It also gave a TG [1] of 54.6 mg/dL, a TP [1] of 5.1 g/dL and a gamma-GTP [1] of 1.2 IU/L. The TERMINAL_BW (100 mg/kg, 6 h, dose level Low) was 200.6 g, the APTT (100 mg/kg, 6 h, dose level Low) was 16 s and the Bas (100 mg/kg, 6 h, dose level Low) was 0%. The Eos (100 mg/kg, 6 h, dose level Low) was 0.8%, the Fbg (100 mg/kg, 6 h, dose level Low) was 249 mg/dL and the Hb (100 mg/kg, 6 h, dose level Low) was 12.8 g/dL. For the same compound, the Ht (100 mg/kg, 6 h, dose level Low) was 38.8%, the Lym (100 mg/kg, 6 h, dose level Low) was 75.2% and the MCHC (100 mg/kg, 6 h, dose level Low) was 33%. For the same compound, the MCV (100 mg/kg, 6 h, dose level Low) was 63.6 fL, the Mono (100 mg/kg, 6 h, dose level Low) was 3.4% and the Neu (100 mg/kg, 6 h, dose level Low) was 19.6%. For the same compound, the PT (100 mg/kg, 6 h, dose level Low) was 12.4 s, the Plat (100 mg/kg, 6 h, dose level Low) was 125.3 x10_4/uL and the RBC (100 mg/kg, 6 h, dose level Low) was 610.4 x10_4/ul. It also gave a Ret (100 mg/kg, 6 h, dose level Low) of 9.8%, a WBC (100 mg/kg, 6 h, dose level Low) of 95.4 x10_2/uL and a KIDNEY_L (100 mg/kg, 6 h, dose level Low) of 0.9 g. For the same compound, the KIDNEY_R (100 mg/kg, 6 h, dose level Low) was 0.9 g, the KIDNEY_TOTAL (100 mg/kg, 6 h, dose level Low) was 1.7 g and the LIVER (100 mg/kg, 6 h, dose level Low) was 7.8 g. The ALT [2] was 55.4 IU/L, the AST [2] was 84.6 IU/L and the BUN [2] was 8.2 mg/dL. It also gave a CRE [2] of 0.1 mg/dL, a Ca [2] of 10.8 mg/dL and a Cl [2] of 105.4 meq/L. The DBIL [2] was 0.008 mg/dL, the GLC [2] was 168.4 mg/dL and the IP [2] was 10.2 mg/dL. It also gave a K [2] of 4.2 meq/L, an LDH [2] of 71.8 IU/L and a Na [2] of 139.2 meq/L. For the same compound, the PL [2] was 124 mg/dL, the RALB [2] was 2.4 g/dL and the TBIL [2] was 0.046 mg/dL. The TG [2] was 26.8 mg/dL, the TP [2] was 5 g/dL and the gamma-GTP [2] was 1.2 IU/L. It also gave a TERMINAL_BW (100 mg/kg, 9 h, dose level Low) of 201.1 g, an APTT (100 mg/kg, 9 h, dose level Low) of 16.1 s and a Bas (100 mg/kg, 9 h, dose level Low) of 0%. The Eos (100 mg/kg, 9 h, dose level Low) was 1%, the Fbg (100 mg/kg, 9 h, dose level Low) was 233.4 mg/dL and the Hb (100 mg/kg, 9 h, dose level Low) was 13 g/dL. For the same compound, the Ht (100 mg/kg, 9 h, dose level Low) was 38.8%, the Lym (100 mg/kg, 9 h, dose level Low) was 75.2% and the MCHC (100 mg/kg, 9 h, dose level Low) was 33.4%. For the same compound, the MCV (100 mg/kg, 9 h, dose level Low) was 64 fL, the Mono (100 mg/kg, 9 h, dose level Low) was 2.8% and the Neu (100 mg/kg, 9 h, dose level Low) was 20.4%. For the same compound, the PT (100 mg/kg, 9 h, dose level Low) was 12.6 s, the Plat (100 mg/kg, 9 h, dose level Low) was 114.4 x10_4/uL and the RBC (100 mg/kg, 9 h, dose level Low) was 607.4 x10_4/ul. For the same compound, the Ret (100 mg/kg, 9 h, dose level Low) was 9%, the WBC (100 mg/kg, 9 h, dose level Low) was 79.5 x10_2/uL and the KIDNEY_L (100 mg/kg, 9 h, dose level Low) was 0.9 g. The KIDNEY_R (100 mg/kg, 9 h, dose level Low) was 0.9 g, the KIDNEY_TOTAL (100 mg/kg, 9 h, dose level Low) was 1.8 g and the LIVER (100 mg/kg, 9 h, dose level Low) was 7.2 g. It also gave an ALP [3] of 1288.4 IU/L, an ALT [3] of 46.6 IU/L and an AST [3] of 75 IU/L. The BUN [3] was 9.8 mg/dL, the CRE [3] was 0.1 mg/dL and the Ca [3] was 10.7 mg/dL. For the same compound, the Cl [3] was 105.4 meq/L, the DBIL [3] was 0.01 mg/dL and the GLC [3] was 166.4 mg/dL. The IP [3] was 10.2 mg/dL, the K [3] was 4.2 meq/L and the LDH [3] was 49 IU/L. It also gave a Na [3] of 140 meq/L, a PL [3] of 118.4 mg/dL and an RALB [3] of 2.5 g/dL. The TBIL [3] was 0.044 mg/dL, the TG [3] was 30 mg/dL and the TP [3] was 5.1 g/dL. For the same compound, the gamma-GTP [3] was 1 IU/L, the TERMINAL_BW [4] was 208.9 g and the APTT [4] was 16.6 s. For the same compound, the Bas [4] was 0%, the Eos [4] was 1% and the Fbg [4] was 242.6 mg/dL. The Hb [4] was 13 g/dL, the Ht [4] was 38.6% and the Lym [4] was 75%. For the same compound, the MCHC [4] was 33.6%, the MCV [4] was 64.8 fL and the Mono [4] was 3.6%. It also gave a Neu [4] of 19.8%, a PT [4] of 12.4 s and a Plat [4] of 109.9 x10_4/uL. It also gave an RBC [4] of 596 x10_4/ul, a Ret [4] of 8.8% and a WBC [4] of 95.2 x10_2/uL. The KIDNEY_L [4] was 0.9 g, the KIDNEY_R [4] was 0.9 g and the KIDNEY_TOTAL [4] was 1.8 g. For the same compound, the LIVER [4] was 10.1 g, the ALP [5] was 1691 IU/L and the ALT [5] was 51.6 IU/L. It also gave an AST [5] of 80.8 IU/L, a BUN [5] of 14.6 mg/dL and a CRE [5] of 0.2 mg/dL. For the same compound, the Ca [5] was 11.3 mg/dL, the Cl [5] was 105.2 meq/L and the DBIL [5] was 0.016 mg/dL. The GLC [5] was 173.6 mg/dL, the IP [5] was 8.5 mg/dL and the K [5] was 3.9 meq/L. The LDH [5] was 81 IU/L, the Na [5] was 142.6 meq/L and the PL [5] was 140 mg/dL. For the same compound, the RALB [5] was 2.6 g/dL, the TBIL [5] was 0.034 mg/dL and the TG [5] was 99 mg/dL. It also gave a TP [5] of 5.5 g/dL, a gamma-GTP [5] of 1.2 IU/L and a TERMINAL_BW [6] of 201.8 g. For the same compound, the APTT [6] was 15.4 s.
